28 compounds from ChEMBL document CHEMBL1201862, “PubChem BioAssay data set” (2004) can be followed below.

Test systems include Hs-578T; MDA-N; SR; BT-549; T47D; SNB-78; HOP-18; RXF 631; LXFL 529.
Common to all, as to test: growth of human tumour cells (NCI), 48 h

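1) Cells in 96-well plates. 2) Compound, 48 h, 5 concentrations. 3) Linear interpolation between surrounding doses. 4) Unreached endpoint = highest concentration. GI50 is the concentration that inhibits growth by half.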 Calls of active or inactive are those of the source. No stated cut-off is given here; in the data, active = GI50 up to about 1.1 µM and inactive = higher. Non-standard residues stand in square brackets, D forms with d. Residues, ends and D or L forms follow the SMILES beside them. ξ: configuration not given here. Pentanoyl(2-O,4-OH,5-Cl) = O=C(O)C(O)CC(O)CCl; Ile(3ξ) = CCC(C)[C@H](N)C(=O)O; NMeV = CN[C@H](C(=O)O)C(C)C; NMeA = CN[C@@H](C)C(=O)O; βAla = NCCC(=O)O

For `Nc1ccc(N(S(=O)(=O)c2ccccc2)S(=O)(=O)c2ccccc2)c(Cl)c1`, the GI50 with Hs-578T was 64 µM (inactive); in the test on MDA-N, 28.9 µM (inactive); in the test with SR, 57.3 µM (inactive); in the test on BT-549 it was 56.5 µM (inactive); in the test on T47D, 48.1 µM (inactive).
In the case of `COc1cc2c(oc(=O)c3cc(C)cc(OC)c32)c2c(C3OC(C)C(O)C(C)(O)C3O)ccc(O)c12` (stereo not drawn), the GI50 in the test with SNB-78 was 0.755 µM (active); in the test on HOP-18, 1.41 µM (inactive).
With `C=CCOCCC(CC=C)C(=O)CC(=O)OC` (stereo not drawn), the results for the GI50 in the test with HOP-18 and in the test on SR were > 100 µM (inactive) and 3.56 µM (inactive), respectively.
Turning to `N#Cc1c(NC(=S)NC(=O)c2ccccc2)nc2c(c1-c1ccccc1)CCCC2`, the GI50 in the test with Hs-578T was 17 µM (inactive); with MDA-N, > 100 µM (inactive); in the test on SR, > 100 µM (inactive); in the test with BT-549, 30.5 µM (inactive); in the test on T47D, 17.7 µM (inactive).
On to `O=C1CCCCC2N(C(c3ccccc3)c3ccccc3)CC[C@@]12c1ccccc1.O=C1CCCC[C@H]2N(C(c3ccccc3)c3ccccc3)CC[C@@]12c1ccccc1` (stereo partly drawn), for which the figures for the GI50 in the test on SNB-78 and with RXF 631 were > 10 µM (inactive) and 3.88 µM (inactive), respectively.
Turning to `c1ccc2c(c1)NCc1cc3ccccc3nc1O2`, the GI50 in the test with SNB-78 and in the test on HOP-18 was > 100 µM (inactive) in each case.
Take `COC1C(O)C(n2ncc3c(SC)nc(SC)nc32)OC1C(O)CO` (stereo not drawn): the GI50 in the test on SNB-78 and in the test with HOP-18 was > 100 µM (inactive) each time.
As for `O=C1NC(=O)C(CCO)(c2ccccc2)C(=O)N1`, the GI50 with SNB-78 and with HOP-18 was > 100 µM (inactive) in each case.
Regarding `Cc1ccc(S(=O)(=O)N(C=O)N=C2CCN(Cc3ccccc3)CC2)cc1`, the GI50 in the test on SNB-78, in the test on HOP-18, in the test on LXFL 529, in the test on RXF 631 and with SR was > 100 µM (inactive) throughout.
For the compound `CSc1nc(NC2OC(COC(C)=O)C(OC(C)=O)C(OC(C)=O)C2OC(C)=O)c2c(OC(C)=O)c(C)c(=O)oc2n1` (stereo not drawn), the GI50 in the test on SNB-78, in the test on HOP-18 and in the test on LXFL 529 was > 100 µM (inactive) throughout.
On to `CCC1OC2C(CC=C(C)C)=C3OC(C)(O)C(C)(CC)C(OC(C)=O)C3=C3OC(=O)C=C1C32` (stereo not drawn), for which the GI50 with Hs-578T was 39.7 µM (inactive); in the test on SR it was 31.8 µM (inactive); in the test on BT-549 it was 21.5 µM (inactive); in the test on T47D, 37.8 µM (inactive).
For `CC(C)(C)/N=c1/n(C(C)(C)C)oc(=O)n1C(C)(C)C`, the GI50 in the test on Hs-578T, with MDA-N, in the test on SR and in the test on BT-549 was > 100 µM (inactive) each time.
For the compound `Cc1nn(C)c2c1C(=O)N(C)CC(=O)N2C`, the GI50 with Hs-578T, in the test on MDA-N, with SR and in the test on BT-549 was > 100 µM (inactive) throughout.
Take `CN(C)c1ccc(C2CC(=O)CC(c3ccc(N(C)C)cc3)C23C(=O)NC(=O)NC3=O)cc1` (stereo not drawn): the GI50 in the test on MDA-N was > 25 µM (inactive); in the test on SR, > 25 µM (inactive); with BT-549 it was 23 µM (inactive); with T47D, > 25 µM (inactive).
Consider `Cc1c(Cl)c(=O)oc2cc(OCC(=O)c3ccccc3)ccc12`, for which the GI50 in the test on Hs-578T was > 100 µM (inactive); in the test with MDA-N, > 100 µM (inactive); in the test with SR, 2.7 µM (inactive); in the test with BT-549 it was > 100 µM (inactive); with T47D it was > 100 µM (inactive).
Turning to `N#CCCC(CCC#N)(CCC#N)NO`, the GI50 with Hs-578T, with MDA-N, with SR, with BT-549 and in the test with T47D was > 100 µM (inactive) each time.
Consider `O=C/C(=C1/C=Cc2cc([N+](=O)[O-])ccc2S1)c1ccccc1`, for which the GI50 in the test with Hs-578T, in the test with MDA-N, in the test with SR and in the test with T47D was > 100 µM (inactive) in each case.
Take `N#CC1=C(O)NC(O)=C(C#N)C1c1c(Cl)cccc1Cl`: the GI50 with SNB-78 was 26.2 µM (inactive); with HOP-18 it was > 100 µM (inactive); with SR, > 100 µM (inactive).
On to `COc1ccc2[nH]c3c(C)c4ccncc4c(C)c3c2c1`, for which the GI50 with SNB-78 is 2.69 µM (inactive); in the test on HOP-18 it was 1.29 µM (inactive).
On to `COc1ccc(C2c3cc4c(cc3OC(NCCO)C2C)OCO4)cc1` (stereo not drawn), for which the GI50 is 19.3 µM (inactive) in the test on Hs-578T; 18.2 µM (inactive) in the test with MDA-N; 19 µM (inactive) in the test with SR; 16.7 µM (inactive) in the test with BT-549; 30.3 µM (inactive) in the test with T47D.
`CCOC(=O)c1c[nH]c2cc3c(cc2c1=O)CCS3(=O)=O.CCOC(=O)c1c[nH]c2ccc3c(c2c1=O)S(=O)(=O)CC3`: the GI50 in the test on SNB-78 was > 100 µM (inactive); in the test with HOP-18 it was 97.1 µM (inactive).
The like results for `Cc1ccc(C#CS(=O)(=O)C(F)(F)F)cc1` were, in that order, > 100 µM (inactive) and > 100 µM (inactive).
In the same order, the values of `CN(C)CCCNC(=O)N/N=C/c1ccccc1` are > 100 µM (inactive) and > 100 µM (inactive).
For the compound `Nc1ccccc1Sc1ccc(Cl)cc1`, the GI50 with SNB-78 is 17 µM (inactive); in the test with HOP-18, 43.2 µM (inactive); in the test with LXFL 529, 38.2 µM (inactive); in the test on SR, 21.2 µM (inactive).
As for `C=CCC12CC(=O)C=C1CCC1(C2)OCCO1` (stereo not drawn), the GI50 in the test with SNB-78, in the test on HOP-18, in the test with LXFL 529, in the test with RXF 631 and in the test on SR was > 100 µM (inactive) each time.
As to `CCOC(=O)C(=Cn1c(=S)[nH]c2ccc([N+](=O)[O-])cc21)C(=O)OCC`, the GI50 with Hs-578T was 90.4 µM (inactive); with MDA-N it was > 100 µM (inactive); with SR, > 100 µM (inactive); in the test with T47D it was 59.6 µM (inactive).
For `O=C1C=C(Sc2ccccc2)c2nccc3c2c1nc1ccccc13`, the GI50 in the test on Hs-578T is 15.8 µM (inactive); in the test on MDA-N, 16.9 µM (inactive); in the test with SR, 5.92 µM (inactive); in the test on BT-549 it was 16 µM (inactive).
Regarding `CCC(C)[C@@H]1NC(=O)[C@@H]2CCCN2C(=O)C(CC(O)CCl)OC(=O)CCNC(=O)[C@H](C)N(C)C(=O)[C@H](C(C)C)N(C)C1=O` (stereo partly drawn) (cyclo([Ile(3ξ)][NMeV][NMeA][βAla][Pentanoyl(2-O,4-OH,5-Cl)]P)), the GI50 was > 91.6 µM (inactive) in the test on Hs-578T; > 100 µM (inactive) in the test with MDA-N; 0.361 µM (active) with SR; > 100 µM (inactive) in the test with BT-549; 3.94 µM (inactive) in the test with T47D.
